Test results taken from article PMC9143043, “Synthesis and Biological Evaluation of 5′-O-Fatty Acyl Ester Derivatives of 3′-Fluoro-2′,3′-dideoxythymidine as Potential Anti-HIV Microbicides” (Molecules, 2022).
Where two headings read alike, the source gives them in different places.

How the values were obtained:
[1] = pKa by dip-probe absorption spectroscopy (D-PAS); type: physicochemical; settings: methanol-water co-solvent, Yasuda-Shedlovsky extrapolation
Method: (§1) Physicochemical properties including pKa, Log D, and solubility were determined for 5 (as a model compound). […] It was not possible to measure the partition coefficient (Log P) of the fatty acyl derivatives of FLT and AZT in a standard n-octanol/water mixture because of the insolubility of the compounds in water. The cLog P value was calculated as 5.23 using ChemDraw. […] Since most of 5 is in its neutral form, the Log D value will correspond to the Log P value.
The pKa for 5 was determined using dip-probe absorption spectroscopy (D-PAS). The sample was initially titrated in a fast titration between pH 1.8 and pH 12.1 at concentrations of 33–49 µM under aqueous conditions. Precipitation of the sample from the solution was observed below approximately pH 11. The sample was subsequently titrated under methanol–water co-solvent conditions in two triple titrations from pH 12.2 to pH 3.7 at concentrations of 31–49 µM. The methanol ratio varied from to 25.5–50.8%. No precipitation of the sample from the solution was observed under this condition. The pKa was determined from the spectroscopic data by the Yasuda–Shedlovsky extrapolation of the individual obtained results.

[2] = test system: human vaginal cells (VK-2/E6E7); assay: Vaginal cell cytotoxicity (MTS assay); type: cell-based; settings: 6 h incubation; 31-1000 µg/mL
Method: A commercially used spermicidal agent (N-9) and conjugate cytotoxicity was evaluated using immortalized human vaginal cells (VK-2/E6E7). […] Observed cytotoxicity from N-9 could be correlated with the generation of higher levels of cytokines by N-9.
Human T lymphoblastoid cells (CCRF-CEM, ATCC No. CCL-119) were grown to 70% confluency in a culture medium. CCRF-CEM cells were incubated with 10 µM of the compounds and mixed with trypan blue (0.1%) to color the dead cells. The percentage of viability was calculated by using a Cellometer Auto T.4 (Nexcelom Bioscience). The cell viability against the vaginal cells (VK-2/E6E7) was conducted according to the previously reported procedure. The effect of conjugates on the sperm viability and mobility was evaluated as described previously.
Figure 2 (A) Dose–response curves of the vaginal cytotoxicity in VK-2 cells (MTS assay) for 5, 6, 8, and N-9 after 6 h incubations. (B) Proinflammatory cytokine (IL-1α) production in the VK-2 cells (ELISA) after a 6 h incubation in the presence of 5, 6, 8, and N-9.

[3] = Solubility (shake-flask, UV detection; organic solvents); type: physicochemical
Method: Solubility for 5 was investigated by the shake-flask methodology with UV-spectroscopic sample detection. To produce a saturated solution of 5, approximately 1 mg of solid material was added to 10 mL of an aqueous solution, which was adjusted to pH 2.3 with 0.5 M HCl. The sample was then sonicated in an ultrasonic bath for several hours (at room temperature) before being left to equilibrate for a period of approximately 3 days. The supernatant was then filtered under vacuum through a 0.2 µm PVDF filter plate, and the UV absorption spectrum of the sample was measured (after adjusting the pH of the solution to 11.8 with 0.5 M KOH). Molar absorption coefficients of 5 were obtained at pH 11.8 for 25 µM, 50 µM, and 100 µM solutions of 5, in order to quantify the concentration of the sample in the saturated supernatant. […] However, 5 was less soluble in DMSO (~4.1 mg/mL).

HIV-1 4755-5 MDR (B-MDR) = assay: PBMC multi-round infection assay, resistant isolate 4755-5; type: cell-based
Method: Based on a preliminary screening, conjugates 5 and 8 were evaluated for their ability to inhibit a drug-resistant virus in a peripheral blood mononuclear cell (PBMC) assay. In this assay, FLT, 5, and 8 were tested against B- and C-wild type and A-17 and 4755–5 multidrug-resistant (MDR) clinical isolates of HIV-1, where compounds were incubated with PBMCs for 6 h and then washed off before the addition of the virus and further culture for 7 days.
For the assessment of compounds against the wild type (WT; R5; clones = 94US3393IN [B subtype] and 98USMSC5016 [C subtype]) and drug-resistant (clones = 4755−5 and A17) HIV-1 clinical isolates, PHA-P stimulated cells from at least two normal donors were pooled, diluted in fresh media, and plated in the interior wells of a 96-well round-bottom microplate. Pooling PBMCs from more than one donor was used to minimize the variability observed between the individual donors, which results from the quantitative and qualitative differences in HIV infection and overall response to the PHA and IL-2 of primary lymphocyte populations. Each plate contained virus/cell control wells (cells + virus), experimental wells (drug + cells + virus), and compound control wells (drug + media, no cells, necessary for MTS monitoring of cytotoxicity). Test drug dilutions were prepared in microtiter tubes, and each concentration was placed in appropriate wells. Following the addition of the drug dilutions to the PBMCs, a predetermined dilution of virus stock was then placed in each test well (final MOI ≅ 0.1). Because HIV-1 is not cytopathic to PBMCs, the same assay plate can be used for both the antiviral efficacy and cytotoxicity measurements. Compounds were incubated with virus and cells in a 96-well format for 6 h. The cells were then washed by removing 75% of the medium (150 μL) and replacing it with 150 μL of fresh (no drug) medium. The plates were then centrifuged (∼200 g) for 10 min, after which 150 μL of the medium was removed, and an additional 150 μL of fresh medium was added to each well and further incubated for 6 days or until peak reverse transcriptase (RT) activity was detected. A microtiter plate-based RT reaction was utilized. Incorporated radioactivity (counts per minute, CPM) was quantified using standard liquid scintillation techniques. Compound IC50 (50%, inhibition of virus replication) was calculated using statistical software and regression analysis. A cellular uptake study was conducted for fluorescence conjugates 23 and 24 using a previously published procedure with minor modifications. All of the experiments were conducted in triplicate.

[4] = Log D by liquid-liquid distribution chromatography; type: physicochemical; settings: octanol-coated column with octanol-saturated mobile phases, pH 7.4
Method: as §1
The Log P of 5 was initially investigated by the pH-metric (potentiometric) method. The sample was titrated in three triple titrations from pH 2.5 to pH 11.9 at concentrations of 0.7–1.1 mM in various ratios of octanol/water. The results indicated high sample lipophilicity, although the Log P could not be determined due to the apparent pKa in octanol shifting out of the measurable range. Therefore, the Log D of 5 at pH 7.4 was measured as 5.04 using liquid–liquid distribution chromatography. The Profiler LDA is an isocratic chromatography system that uses an octanol-coated column with octanol saturated mobile phases adjusted to pH 7.4. […]

[5] = Human immunodeficiency virus 1, PBMC

Cc1cn([C@H]2C[C@H](F)[C@@H](COC(=O)CCCCCCCCCCCN=[N+]=[N-])O2)c(=O)[nH]c1=O [Compound 5, 3′-fluoro-2′,3′-dideoxy-5′-O-(12-azidododecanoyl)thymidine]
pKa [1]: 9.67 | cytotoxicity to vaginal cells [2]: did not show significant cytotoxic effects | solubility ([3]; DMSO, organic solvent or mixture, DMSO, read-out: solubility in DMSO): ~4100 µg/mL | solubility ([3]; aqueous solution adjusted to pH 2.3, pH 2.3, aqueous buffer, thermodynamic from solid, shake-flask, UV detection, read-out: aqueous solubility (upper limit)): ≤ 0.51 µM | solubility ([3]; ethanol, organic solvent or mixture, ethanol, read-out: solubility in ethanol): > 30000 µg/mL | solubility in water/methanol (60:40) ([3]; mixture of water/methanol (60:40)): completely soluble | IC50 (HIV-1 4755-5 MDR (B-MDR); [5]): 39.6 nM | IC90 (HIV-1 4755-5 MDR (B-MDR); [5]): 507 nM | fold more potent than FLT against 4755-5 (HIV-1 4755-5 MDR (B-MDR); versus FLT IC50): ≥ 2.7 fold | chromatographic logD [4]: 5.04
